Measured values: US20230339896A1, “HPK1 INHIBITORS AND USES THEREOF” (QILU REGOR THERAPEUTICS INC., priority 2020, published 2023)

Columns and labels:
Human Pan T cells = assay: IL2 & IFN-γ released by human pan T cell (ELISA); format: cell-based; conditions: for EC50 / Human Pan T cells EC2x (nM, IL-2): IL-2, anti-CD3/CD28 stimulation, 48 hours; for Human Pan T cells EC2x (nM, IL-2): concentration giving 200% response (2 folds) over DMSO control; for Max fold change: IL-2 response over DMSO control; for Max fold change / efficacy in inducing IL-2 production: human pan T cells
Description: This example is an assay method that can be used to determine compound effects on IL2 & IFN-γ release using pan T cells and ELISA assay format.
Procedures for Pan T isolation and Reagent preparation (Day 0): • 1. Cell Growth Medium: • RPMI1640: ATCC, Cat# 30-2001 • 10% FBS: Gibco, Cat# 10099141 • 1% Pen-Strep: Gibco, Cat # 15140122 • 1% Non-essential amino: Gibco, Cat #11140050 • Beta- Mercaptoethanol: Gibco, Cat#21985023 • 2. Pan T isolation buffer preparation: • Prepare a solution containing phosphate-buffered saline (PBS), pH 7.2, 0.5% bovine serum albumin (BSA), and 2 mM EDTA by diluting MACS® BSA Stock Solution (# 130-091-376) 20 times with autoMACS® Rinsing Solution. Keep buffer at 4° C. Degas buffer before use, as air bubbles could block the column.
• 3. Thawing of frozen PBMC • 1) Pre-heat medium at 37° C. water bath. • 2) Rapidly thaw cells in 37° C. water bath. • 3) Add the pre-warmed medium into 15 mL tube. Transfer cells to the tube. • 4) 300 × g centrifuge for 8 min. (centrifuge increase 0, decrease 0). • 5) Wash the PBMC using Rinsing buffer. • 6) Centrifuge PBMC at 300 × g for 8 min, wash it twice (centrifuge increase 9, decrease 1). • 7) Resuspend the cells with Pan T cells isolation buffer and count cells number. • 4. Pan T cells isolation: • Cell staining with microbead cocktail • 1) Prepare cells and determine cell number. Filter cells by 70 µm cell strainer. • 2) Resuspend cell pellet in 40 µL of buffer per 10^7 total cells. • 3) Add 10 µL of Pan T Cell Biotin-Antibody Cocktail per 10^7 total cells. • 4) Mix well and incubate for 10 minutes in the refrigerator (ice). • 5) Add 30 µL of buffer per 10^7 total cells. • 6) Add 20 µL of Pan T Cell MicroBead Cocktail per 10^7 total cells. • 7) Mix well and incubate for 15 minutes in the refrigerator (ice). • 8) Proceed to subsequent magnetic cell separation.
Subsequent manual cell separation: • 1) Place LS Column in the magnetic field of a suitable MACS Separator. For details refer to the respective MACS Column data sheet. • 2) Prepare column by rinsing with 3 mL of buffer. • 3) Apply cell suspension onto the column. Collect flow-through, which represents the enriched T cells. • 4) Wash column with 5 mL of buffer. Collect unlabeled cells that pass through, representing the enriched T cells.
Reminder: Always wait until the column reservoir is empty before proceeding to the next step. • 5. Pan T cell FACS: • 1) Take out 50 µL of PBMC and Pan T cells to FACS tubes respectively. • 2) Incubate cells with anti-human CD3/CD4/CD8 antibodies (1 µL/1 µL/1 µL /tube) for 20 min at 4° C. For unstained control, incubate cells with FACS staining buffer. • 3) Wash 2 times with cold staining buffer (PBS with 0.2%BSA and 1 mM EDTA). • 4) Run FACS. Gate CD3^+, CD3^+CD4^+, and CD3^+CD8^+ population for % analysis. • 5) If the purity of Pan T cells is higher than 90%, dilute cell suspension to 1 million cells/mL with the appropriate volume of Cell Culture Media. • 6) Dispense the cell suspension into a sterile, disposable reservoir for future use.
Procedures for preparation of compounds and anti-human CD3/CD28 (Day 0): • 1. Compound preparation • Compound serial dilution (source plate 1000×) • Compounds are solubilized in 100% DMSO to a concentration of 10 mM. Then they were 3-fold serially diluted to 8-point doses. • 4× Compound dose preparation (inter plate: Corning-3599): • Prepare 4× compound solution in culture medium. Pipet up and down. For the ZPE control, prepare 0.4% DMSO (4×) in culture medium. For the HPE control, prepare 0.4 µM of RGT003-026 (4×) in culture medium. • 2. Anti-human CD3 (stock conc. 6.76 mg/ml): stored at 4° C. • 1) Dilute anti-human CD3 with PBS to final conc. of 0.5 µg/mL. • 2) Add 50 µL /well of CD3 to each well, except for the positive and negative control wells. […] Rinse each well twice with 200 µL of sterile PBS each time. • 3. […]

[1] = Metabolic stability in liver microsomes, human (HLM); format: in vitro ADME; conditions: 1 µM compound, NADPH; for half-life at 1 µM: human, liver microsomes, pH 7.4, 0.5 mg/mL protein, read-out: Metabolic Stability T½ (min), HLM
Method: This assay is for determining the stability of test compound in liver microsomes. The study will be conducted in accordance with International Bioethical Standards “World Medical Association Declaration of
Human, Sprague Dawley Rat, CD-1 mouse, Beagle Dog and Cynomolgus Monkey Liver Microsomes samples purchased from BD Gentest or RILD.
0.1 M Potassium phosphate buffer, pH 7.4: • Buffer A: 1.0 L of 0.1 M monobasic Potassium Phosphate buffer containing 1.0 mM EDTA • Buffer B: 1.0 L of 0.1 M Dibasic Potassium Phosphate buffer containing 1.0 mM EDTA • Buffer C (K-phosphate buffer): 0.1 M Potassium Phosphate buffer, 1.0 mM EDTA, pH 7.4 by titrating 700 mL of buffer B with buffer A while monitoring the pH meter
• Prepare 3× test compound or positive control solutions: 500 µM spiking solution: add 10 µL of 10 mM DMSO stock solution into 190 µL ACN. • 1.5 µM spiking solution in microsomes (0.75 mg/mL): add 1.5 µL of 500 µM spiking solution and 18.75 µL of 20 mg/mL liver microsomes into 479.75 µL of K-phosphate buffer.
Add 30 µL of 1.5 µM spiking solution containing 0.75 mg/ml microsomes solution to the wells designated for 45 min, 30 min, 15 min, 5 min and 0 min. Pre-incubate the plate at 37° C. for 5 minutes.
Add 15 µL of NADPH stock solution (6 mM) to all of the wells, and start timing. Immediately, add 135 µL of ACN containing IS to the wells designated as Time 0.
At 5 min, 15 min, 30 min and 45 min, add 135 µL of ACN containing IS to the wells, respectively.
After quenching, centrifuge the reaction mixtures at 3220 x g for 10 min.
Transfer 50 µL of the supernatant from each well into a 96-well sample plate containing 50 µL of ultra pure water (Millipore) for LC/MS analysis.
The % parent remaining at each incubation time point is calculated by comparing to the peak area ratio (compound peak area/internal standard peak area) at T0 (0 minute incubation). The ln peak area ratio is plotted against time and the gradient of the line is determined. The half-life and metabolism of compounds is calculated based upon a natural log linear regression of the relative peak areas vs time. The half-life and intrinsic clearance (Clint) in microsomes are calculated using the equations below. • In Vitro T ½ (min) = 0.693/Elimination rate of constant (k) • Clint (µL/min/mg of microsomal protein) = (0.693 / In Vitro T ½) (Incubation Volume/ mg of microsomes)

SMILES | EC50 (Human Pan T cells; Homo sapiens, T-cell) [nM] | half-life at 1 µM [1] [min] | EC50 (Human Pan T cells) [nM] | Metabolic Stability T½ (min), HLM ([1]; 0.5 mg/mL protein) | Human Pan T cells EC2x (nM, IL-2) (Human Pan T cells) | Max fold change (Human Pan T cells) | efficacy in inducing IL-2 production (Human Pan T cells)
CN1CCc2cc(F)c(Nc3ncc(Cl)c(N4C[C@](C)(CC(=O)O)c5ccccc54)n3)cc2C1 (single isomer, unassigned) [Example 5, (R)-2-[1-[5-chloro-2-[(6-fluoro-2-methyl-3,4-dihydro-1H-isoquinolin-7-yl)amino]pyrimidin-4-yl]-3-methyl-indolin-3-yl]acetic acid or (S)-2-[1-[5-chloro-2-[(6-fluoro-2-methyl-3,4-dihydro-1H-isoquinolin-7-yl)amino]pyrimidin-4-yl]-3-methyl-indolin-3-yl]acetic acid] | – | – | 17.4 | HLM: 68 min | 7.5 nM | 3.88 | good efficacy
COc1cc2c(cc1Nc1ncc(Cl)c(N3CC(C(=O)O)c4ccccc43)n1)CN(C)CC2 (centres unmarked) [Compound 7, reference compound] | 278 | 237 | – | – | 338 (N = 6) nM | 3.2 (N = 6) | –
COc1cc2c(cc1Nc1ncc(Cl)c(N3CC(CC(=O)O)c4ccccc43)n1)CN(C)CC2 (centres unmarked) [Compound 8, reference compound] | 275 | 145 | – | – | 240 (N = 2) nM | 3.29 (N = 2) | –
CN1CCc2cc(F)c(Nc3ncc(Cl)c(N4CC(C)(CC(=O)O)c5ccccc54)n3)cc2C1 (centres unmarked) [Example 4, 2-(1-(5-chloro-2-((6-fluoro-2-methyl-1,2,3,4-tetrahydroisoquinolin-7-yl)amino)pyrimidin-4-yl)-3-methylindolin-3-yl)acetic acid] | 31.5 | 110 | – | – | 20.5 (N = 2) nM | 3.84 (N = 2) | good efficacy

Further lines, with some results ahead:

EC50 (Human Pan T cells; Homo sapiens, T-cell) [nM] | half-life at 1 µM [1] [min] | EC50 (Human Pan T cells) [nM] | Metabolic Stability T½ (min), HLM ([1]; 0.5 mg/mL protein) | SMILES | Human Pan T cells EC2x (nM, IL-2) (Human Pan T cells) | Max fold change (Human Pan T cells) | efficacy in inducing IL-2 production (Human Pan T cells)
16.2 | 90.8 | – | – | COc1cc2c(cc1Nc1ncc(Cl)c(N3CC(C)(CC(=O)O)c4ccccc43)n1)CN(C)CC2 (single isomer, unassigned) [Example 2, (R)-2-(1-(5-chloro-2-((6-methoxy-2-methyl-1,2,3,4-tetrahydroisoquinolin-7-yl)amino)pyrimidin-4-yl)-3-methylindolin-3-yl)acetic acid or (S)-2-(1-(5-chloro-2-((6-methoxy-2-methyl-1,2,3,4-tetrahydroisoquinolin-7-yl)amino)pyrimidin-4-yl)-3-methylindolin-3-yl)acetic acid] | 12.5 (N = 10) nM | 3.2 (N = 10) | good efficacy
17.4 | 51 | – | – | COc1cc2c(cc1Nc1ncc(Cl)c(N3CC(C)(CC(=O)O)c4ccc(F)cc43)n1)CN(C)CC2 (centres unmarked) [Compound 10, reference compound] | 15.6 (N = 5) nM | 3.05 (N = 5) | –
50 | 54.4 | – | – | COc1cc2c(cc1Nc1ncc(Cl)c(N3CC(C)(CC(=O)O)c4ccccc43)n1)CN(C)CC2 (centres unmarked) [Example 1, 2-(1-(5-chloro-2-((6-methoxy-2-methyl-1,2,3,4-tetrahydroisoquinolin-7-yl)amino)pyrimidin-4-yl)-3-methylindolin-3-yl)acetic acid] | 28 (N = 5) nM | 3.98 (N = 5) | good efficacy
